The experiment relates to P388 leukemia ip, CD2F1 mice, survival T/C. Nature of the experiment: NCI In Vivo Anticancer Drug Screen. Data for tumor model P388 Leukemia (intraperitoneal) in CD2F1 (CDF1) mice. As to conditions: endpoint: median survival time, higher = longer survival. In a few lines: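 Mice carrying the transplanted tumor received test compound or vehicle. Survival was recorded in each group, and the value is the treated-group measurement divided by that of the vehicle-treated control group.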

[1] abbreviates: dose: 60.0 mg/kg/injection, schedule: Q01DX005 (ip), vehicle: saline with Tween-80.
The mark [2] stands for this setting: dose: 120.0 mg/kg/injection, schedule: Q01DX005 (ip), vehicle: saline with Tween-80.
Setting [3] is: dose: 240.0 mg/kg/injection, schedule: Q01DX005 (ip), vehicle: saline with Tween-80.
The mark [4] stands for this setting: dose: 50.0 mg/kg/injection, schedule: Q01DX005 (ip), vehicle: Klucel (hydroxypropylcellulose) (HPC).
[5] abbreviates: dose: 100.0 mg/kg/injection, schedule: Q01DX005 (ip), vehicle: Klucel (hydroxypropylcellulose) (HPC).
The mark [6] stands for this setting: dose: 200.0 mg/kg/injection, schedule: Q01DX005 (ip), vehicle: Klucel (hydroxypropylcellulose) (HPC).
[7] abbreviates: dose: 25.0 mg/kg/injection, schedule: Q01DX005 (ip), vehicle: Klucel (hydroxypropylcellulose) (HPC).

Each structure is given as a SMILES string. “And” between values parts separate entries of the source, which are not always exact repeats. Identical values can stand only once. Toxic doses and inconclusive results are not listed.

For the compound `CNc1cc(Cl)c(Cl)cc1[N+](=O)[O-]`, the T/C reads like this: (dose: 37.5 mg/kg/injection, schedule: Q04DX003 (ip), vehicle: saline sonified) 95 % of control; (dose: 75.0 mg/kg/injection, schedule: Q04DX003 (ip), vehicle: saline sonified) 95 % of control; (dose: 150.0 mg/kg/injection, schedule: Q04DX003 (ip), vehicle: saline sonified) 95 % of control.
Take `N=C(N)c1ccc(N=C(N)Nc2ccc(C(=N)N)cc2)cc1`: the T/C is, setting by setting: (dose: 6.25 mg/kg/injection, schedule: Q01DX009 (ip), vehicle: saline) 95 % of control; (dose: 12.5 mg/kg/injection, schedule: Q01DX009 (ip), vehicle: saline) 95 % of control; (dose: 25.0 mg/kg/injection, schedule: Q01DX009 (ip), vehicle: saline) 95 % of control.
`CC1(C)N=C(N)N=C(N)N1c1ccc(CCCCc2ccc(Cl)c(S(=O)(=O)F)c2)c(Cl)c1`: the T/C (dose: 2.0 mg/kg/injection, schedule: Q01DX009 (ip), vehicle: saline with Tween-80) was 154 % of control; the T/C (dose: 8.0 mg/kg/injection, schedule: Q01DX009 (ip), vehicle: saline with Tween-80) was 154 % of control; the T/C (dose: 8.0 mg/kg/injection, schedule: Q01DX009 (ip), vehicle: saline) was 172 % of control and 175 % of control; the T/C (dose: 12.0 mg/kg/injection, schedule: Q01DX009 (ip), vehicle: saline) was 180 % of control and 181 % of control; the T/C (dose: 18.0 mg/kg/injection, schedule: Q01DX009 (ip), vehicle: saline) was 163 % of control and 172 % of control and 180 % of control; the T/C (dose: 27.0 mg/kg/injection, schedule: Q01DX009 (ip), vehicle: saline) is 154 % of control and 172 % of control.
For `COc1nc(NC2OCC(OC(C)=O)C(OC(C)=O)C2OC(C)=O)c(N=CC=Nc2c(NC3OCC(OC(C)=O)C(OC(C)=O)C3OC(C)=O)nc(OC)n(C)c2=O)c(=O)n1C` (centres undefined), the T/C is 92 % of control under setting [1], 91 % of control under setting [2] and 91 % of control under setting [3].
For the compound `CCCCCCCCCC1(O)OC(=O)C(C)=C1C` (centres undefined), the T/C reads like this: (dose: 12.5 mg/kg/injection, schedule: Q04DX003 (ip), vehicle: saline with Tween-80) 115 % of control; (dose: 25.0 mg/kg/injection, schedule: Q04DX003 (ip), vehicle: saline with Tween-80) 100 % of control; (dose: 50.0 mg/kg/injection, schedule: Q04DX003 (ip), vehicle: saline with Tween-80) 102 % of control.
As for `O=C(COc1cccc2c(=O)cc(-c3ccccc3)oc12)OCCN1CCOCC1`, the T/C is 98 % of control under setting [4], 104 % of control under setting [5] and 91 % of control under setting [6].
On to `CCCN(CCC)CN1C(=O)c2ccccc2C1=O`, for which the T/C is 106 % of control and 92 % of control under setting [7]; 100 % of control and 105 % of control and 106 % of control under setting [4]; 109 % of control and 89 % of control and 95 % of control under setting [5]; 99 % of control and 108 % of control under setting [6].
For `C(=C\c1cc2ccc(C3=NCCN3)cc2[nH]1)/c1ccc(Oc2ccc(C3=NCCN3)cc2)cc1`, the T/C runs as follows: (dose: 3.12 mg/kg/injection, schedule: Q04DX003 (ip), vehicle: saline) 108 % of control; (dose: 6.25 mg/kg/injection, schedule: Q04DX003 (ip), vehicle: saline) 103 % of control; (dose: 12.5 mg/kg/injection, schedule: Q04DX003 (ip), vehicle: saline) 111 % of control; (dose: 25.0 mg/kg/injection, schedule: Q04DX003 (ip), vehicle: saline) 120 % of control.
Regarding `O=C(N/N=c1/sc2ccccc2n1Cc1ccccc1)c1ccncc1`, the T/C was 106 % of control (dose: 6.25 mg/kg/injection, schedule: Q01DX009 (ip), vehicle: Klucel (hydroxypropylcellulose) (HPC)); 100 % of control (dose: 12.5 mg/kg/injection, schedule: Q01DX009 (ip), vehicle: Klucel (hydroxypropylcellulose) (HPC)); 89 % of control (dose: 25.0 mg/kg/injection, schedule: Q01DX009 (ip), vehicle: Klucel (hydroxypropylcellulose) (HPC)).
Regarding `CC(=O)Oc1c(C)c(OC(C)=O)c2[nH]c(Cl)c(C=O)c2c1OC(C)=O`, the T/C was 108 % of control (dose: 100.0 mg/kg/injection, schedule: Q01DX001 (ip), vehicle: Klucel (hydroxypropylcellulose) (HPC)) and 102 % of control (dose: 200.0 mg/kg/injection, schedule: Q01DX001 (ip), vehicle: Klucel (hydroxypropylcellulose) (HPC)).
Turning to `COC(=O)c1cc(-c2ccc([N+](=O)[O-])cc2)c2c(=O)n(-c3ccccc3)[nH]c2n1`, the T/C runs as follows: under setting [1], 94 % of control; under setting [2], 87 % of control; under setting [3], 88 % of control.
For `O=C1CN(C(=O)Nc2ccccc2)c2ccccc2N1`, the T/C (dose: 50.0 mg/kg/injection, schedule: Q01DX005 (ip), vehicle: saline with Tween-80) was 92 % of control; the T/C (dose: 100.0 mg/kg/injection, schedule: Q01DX005 (ip), vehicle: saline with Tween-80) was 93 % of control; the T/C (dose: 200.0 mg/kg/injection, schedule: Q01DX005 (ip), vehicle: saline with Tween-80) is 90 % of control.
Take `CSc1nc(N)c2cnn(Cc3ccccc3)c2n1`: the T/C (dose: 100.0 mg/kg/injection, schedule: Q01DX001 (ip), vehicle: saline with Tween-80) was 102 % of control; the T/C (dose: 200.0 mg/kg/injection, schedule: Q01DX001 (ip), vehicle: saline with Tween-80) is 100 % of control; the T/C (dose: 400.0 mg/kg/injection, schedule: Q01DX001 (ip), vehicle: saline with Tween-80) was 94 % of control.
As for `COC(=O)C(CCCN=C(N)N[N+](=O)[O-])NC(=O)c1ccc2c(c1O)C(=O)c1ccccc1C2=O` (centres undefined), the T/C is 96 % of control (dose: 100.0 mg/kg/injection, schedule: Q04DX002 (ip), vehicle: saline with Tween-80); 92 % of control (dose: 200.0 mg/kg/injection, schedule: Q04DX002 (ip), vehicle: saline with Tween-80); 92 % of control (dose: 400.0 mg/kg/injection, schedule: Q04DX002 (ip), vehicle: saline with Tween-80).
As to `CC1C(=O)C23CC1CCC2C12COC(O)C1C(C)(C)C(O)CC2OC3=O` (centres undefined), the T/C is, setting by setting: (dose: 12.5 mg/kg/injection, schedule: Q01DX005 (ip), vehicle: Klucel (hydroxypropylcellulose) (HPC)) 100 % of control; under setting [7], 94 % of control; under setting [4], 100 % of control; (dose: 61.5 mg/kg/injection, schedule: Q01DX005 (ip), vehicle: Klucel (hydroxypropylcellulose) (HPC)) 96 % of control; under setting [5], 102 % of control; (dose: 123.0 mg/kg/injection, schedule: Q01DX005 (ip), vehicle: Klucel (hydroxypropylcellulose) (HPC)) 106 % of control. Further, under “dose: 246.0 mg/kg/injection, schedule: Q01DX005 (ip), vehicle: Klucel (hydroxypropylcellulose) (HPC)”, the T/C is 98 % of control.
As to `COC(=O)[C@@H]1[C@H](O)[C@H](C)[C@H](O)[C@H](C)/C=C\C=C(C)C(=O)Nc2c(C)c(OC(C)=O)c3c(c2O)C(=O)C(C)=C2OCOC(=C23)C(C)=C[C@@](C)(O)[C@H](O)[C@@H](C)[C@H]1OC(C)=O`, the T/C runs as follows: (dose: 50.0 mg/kg/injection, schedule: Q01DX009 (ip), vehicle: saline) 96 % of control; (dose: 100.0 mg/kg/injection, schedule: Q01DX009 (ip), vehicle: saline) 109 % of control and 96 % of control; (dose: 200.0 mg/kg/injection, schedule: Q01DX009 (ip), vehicle: saline) 99 % of control and 122 % of control; (dose: 400.0 mg/kg/injection, schedule: Q01DX009 (ip), vehicle: saline) 100 % of control.
On to `CCCCCCCC/C=C\CCCCCCCCN=Cc1c(O)c(O)c(C(C)C)c2cc(C)c(-c3c(C)cc4c(C(C)C)c(O)c(O)c(C=NCCCCCCCC/C=C\CCCCCCCC)c4c3O)c(O)c12`, for which the T/C is 105 % of control (dose: 25.0 mg/kg/injection, schedule: Q01DX005 (ip), vehicle: saline + Tween-80 + alcohol); 105 % of control (dose: 50.0 mg/kg/injection, schedule: Q01DX005 (ip), vehicle: saline + Tween-80 + alcohol); 100 % of control (dose: 100.0 mg/kg/injection, schedule: Q01DX005 (ip), vehicle: saline + Tween-80 + alcohol); 105 % of control (dose: 200.0 mg/kg/injection, schedule: Q01DX005 (ip), vehicle: saline + Tween-80 + alcohol).
As to `O=[N+]([O-])c1ccc(N/N=C(\CI)c2ccccc2)c([N+](=O)[O-])c1`, the T/C by setting is: (dose: 75.0 mg/kg/injection, schedule: Q01DX001 (ip), vehicle: saline with Tween-80) 105 % of control; (dose: 150.0 mg/kg/injection, schedule: Q01DX001 (ip), vehicle: saline with Tween-80) 105 % of control; (dose: 300.0 mg/kg/injection, schedule: Q01DX001 (ip), vehicle: saline with Tween-80) 120 % of control.

(Values after PubChem BioAssay AID330 (DTP/NCI, 2004).)
